ChEMBL document CHEMBL1125565, “Hypoxia-selective antitumor agents. 6. 4-(Alkylamino)nitroquinolines: a new class of hypoxia-selective cytotoxins” (J Med Chem, 1992)

Tests used:
CHO-AA8 [1] = test: cells; settings: Cricetulus griseus, CHO-AA8, 18 h
Description: Growth inhibition in CHO subline AA8 cells exposed for 18 hr under aerobic(air) conditions

Nucleic Acid [2] = test system: Nucleic Acid
Description: (§1) Inhibitory concentration against DNA-bound ethidium bromide

physchem [3] = settings: aqueous solution
Description: (§2) Compound was evaluated for quinoline pKa value in aqueous solution at 25 degree Celsius by spectrophotometry

physchem [4] = settings: aqueous solution; remark: listed apart in the source
Description: as §2

CHO-AA8 [5] = test: cells; settings: Cricetulus griseus, CHO-AA8, 18 h; remark: listed apart in the source
Description: Growth inhibitory activity against CHO subline AA8 cells exposed for 18 hr under aerobic conditions

Nucleic Acid [6] = test system: Nucleic Acid; remark: listed apart in the source
Description: as §1

SMILES	IC50 (CHO-AA8 [1]) [µM]	C50 (Nucleic Acid [2]) [µM]	pKa (physchem [3])	pKa (physchem [4])	IC50 (CHO-AA8 [5]) [µM]	C50 (Nucleic Acid [6]) [µM]
Cc1cc(NCCCN(C)C)c2c([N+](=O)[O-])cccc2n1	6.6	1.1	6.41			
CN(C)CCCNc1ccnc2cccc([N+](=O)[O-])c12	12.4	1.1		6.39		
CNc1ccc([N+](=O)[O-])c2c(NCCCN(C)C)ccnc12			4.22		98	
CN(C)CCNc1ccnc2cccc([N+](=O)[O-])c12	20.9	1.5	5.77			
CN(C)CCCNc1ncnc2cccc([N+](=O)[O-])c12	82	4.3	4.05			
Cc1c([N+](=O)[O-])ccc2c(NCCCN(C)C)ccnc12	21	2.9	6.71			
COc1ccc([N+](=O)[O-])c2c(NCCCN(C)C)ccnc12	6.8		6.76			
Cc1ccc([N+](=O)[O-])c2c(NCCCN(C)C)ccnc12	29	3	6.84			
CN(C)CCCNc1ccnc2cc([N+](=O)[O-])ccc12	46	0.9		6.77		
CN(C)CCCCNc1ccnc2cccc([N+](=O)[O-])c12	9	3.1	6.71			
Cc1nc2ccccc2c(NCCCN(C)C)c1[N+](=O)[O-]	226	8.6	5.35			
CN(C)CCCNc1ccnc2c([N+](=O)[O-])cccc12	93	1.2	6.91			
CN(C)CCCNc1cc[n+](C)c2cccc([N+](=O)[O-])c12					5.8	3.6
CN(C)CCCNc1ccnc2ccc([N+](=O)[O-])cc12	34	1		6.99		
Cc1ccc2c(NCCCN(C)C)ccnc2c1[N+](=O)[O-]	253	4.6	5.51			
COCC(O)Cn1ccnc1[N+](=O)[O-] (configuration not stated) [MISONIDAZOLE]	12100					
Cc1cc2nccc(NCCCN(C)C)c2cc1[N+](=O)[O-]	28	2.3	7.38			
Cc1cnc2cccc([N+](=O)[O-])c2c1NCCCN(C)C	33	1	6.01			
CN(C)CCN(C)c1ccnc2cccc([N+](=O)[O-])c12	95	3.9	4.86			
Cc1ccc2nccc(NCCCN(C)C)c2c1[N+](=O)[O-]	170	3.1	6.15			
CN(C)CCCNc1c([N+](=O)[O-])cnc2ccccc12	34	5		4.43		
CN(C)CCCNc1ccnc2ccccc12	125	4.6		8.85		
CN(C)CCCNc1c2ccccc2nc2cccc([N+](=O)[O-])c12 [NITRACRINE]					0.024	
